Experimental data reported in ChEMBL document CHEMBL1201862, “PubChem BioAssay data set” (2004).
“And” between values parts separate entries of the source, which are not always exact repeats. Equal entries are not always repeated.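 These data come from cells grown in 96-well plates and exposed to compound for 48 hours at five concentrations. Abbreviation: GI50, concentration required for 50% inhibition of growth.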 The source made the active and inactive calls. No stated cut-off is given here; in the data, active = GI50 up to about 1.1 µM and inactive = higher.

Experiments:
Assay in all cases: DTP human tumour cell line panel, 48 h
786-0 = system: 786-0
A498 = system: A498
A549 = system: A549
ACHN = system: ACHN
BT-549 = system: BT-549
CAKI-1 = system: CAKI-1
CCRF-CEM = system: CCRF-CEM
COLO 205 = system: COLO 205
DU-145 = system: DU-145
EKVX = system: EKVX
HCC 2998 = system: HCC 2998
HCT-116 = system: HCT-116
HCT-15 = system: HCT-15
HL-60 = system: HL-60
HOP-92 = system: HOP-92
HT-29 = system: HT-29
Hs-578T = system: Hs-578T
IGROV-1 = system: IGROV-1
K562 = system: K562
KM12 = system: KM12
LOX IMVI = system: LOX IMVI
M14 = system: M14
MCF7 = system: MCF7
MDA-MB-231 = system: MDA-MB-231
MDA-MB-435 = system: MDA-MB-435
MDA-N = system: MDA-N
MOLT-4 = system: MOLT-4
Malme-3M = system: Malme-3M
NCI-H226 = system: NCI-H226
NCI-H23 = system: NCI-H23
NCI-H522 = system: NCI-H522
NCI/ADR-RES = system: NCI/ADR-RES
OVCAR-3 = system: OVCAR-3
OVCAR-4 = system: OVCAR-4
OVCAR-5 = system: OVCAR-5
OVCAR-8 = system: OVCAR-8
PC-3 = system: PC-3
RPMI-8226 = system: RPMI-8226
SF-268 = system: SF-268
SF-295 = system: SF-295
SK-MEL-28 = system: SK-MEL-28
SK-MEL-2 = system: SK-MEL-2
SK-MEL-5 = system: SK-MEL-5
SK-OV-3 = system: SK-OV-3
SN12C = system: SN12C
SNB-19 = system: SNB-19
SR = system: SR
SW-620 = system: SW-620
T47D = system: T47D
TK-10 = system: TK-10
U-251 = system: U-251
UACC-257 = system: UACC-257
UACC-62 = system: UACC-62
UO-31 = system: UO-31
HOP-62 = system: HOP-62
NCI-H460 = system: NCI-H460
RXF 393 = system: RXF 393
SNB-75 = system: SNB-75

Measured: GI50

COC(=O)C1OC(O[C@H]2CC[C@]3(C)[C@H]4CC=C5[C@@H]6CC(C)(C)CC[C@]6(C(=O)OC6OCC(O)C(O)C6OC6OC(C)C(OC7OCC(O)C(OC8OCC(O)C(O)C8O)C7O)C(OC7OCC(O)C(O)C7O)C6O)CC[C@@]5(C)[C@]4(C)CC[C@H]3C2(C)C)C(O)C(OC2OCC(O)C(O)C2O)C1O (stereo partly specified)
14.1 µM and 27.4 µM: HCT-15
inactive: 786-0 5.01 µM and 7.71 µM | A498 1.94 µM and 1.66 µM | A549 3.17 µM and 3.16 µM | ACHN 4.84 µM and 4.03 µM | BT-549 3.01 µM and 2.62 µM | CAKI-1 5.24 µM and 4.84 µM | CCRF-CEM 11.3 µM and 10.6 µM | COLO 205 1.6 µM and 1.52 µM | DU-145 5.79 µM and 9.29 µM | EKVX 3.74 µM and 3.72 µM | HCC 2998 1.78 µM and 1.67 µM | HCT-116 4.04 µM and 4.85 µM | HL-60 2.28 µM and 1.97 µM | HOP-92 2.19 µM and 2.25 µM | HT-29 3.1 µM and 2.9 µM | Hs-578T 16.1 µM and 19.7 µM | IGROV-1 7.41 µM and 9.25 µM | K562 4.94 µM and 3.94 µM | KM12 3.1 µM and 3.08 µM | LOX IMVI 7.85 µM and 5.43 µM | M14 1.95 µM and 2.25 µM | MCF7 4.71 µM and 3.27 µM | MDA-MB-231 2.73 µM and 3.51 µM | MDA-MB-435 2.13 µM and 2.14 µM | MDA-N 2.02 µM and 1.79 µM | MOLT-4 8.24 µM and 4.91 µM | Malme-3M 3.61 µM and 5.04 µM | NCI-H226 2.9 µM and 4.98 µM | NCI-H23 4.52 µM and 3.81 µM | NCI-H522 1.95 µM and 1.77 µM | NCI/ADR-RES 5.11 µM and 4.45 µM | OVCAR-3 9.25 µM and 7.82 µM | OVCAR-4 6.61 µM and 5.24 µM | OVCAR-5 5.31 µM and 4.75 µM | OVCAR-8 13.2 µM and 10.4 µM | PC-3 4.46 µM and 4.32 µM | RPMI-8226 2.62 µM and 4.37 µM | SF-268 6.53 µM and 8.45 µM | SF-295 5.19 µM and 3.39 µM | SK-MEL-28 2.37 µM and 2.07 µM | SK-MEL-2 2.22 µM and 2.93 µM | SK-MEL-5 3.8 µM and 2.52 µM | SK-OV-3 12.8 µM and 16.6 µM | SN12C 2.25 µM and 2.31 µM | SNB-19 7.01 µM and 6.22 µM | SR 1.75 µM and 2.72 µM | SW-620 9.2 µM and 8.04 µM | T47D 3.45 µM and 3.29 µM | TK-10 7.35 µM and 11.9 µM | U-251 7.41 µM and 6.87 µM | UACC-257 3.17 µM and 2.91 µM | UACC-62 3.08 µM and 3.77 µM | UO-31 2.01 µM and 1.9 µM

CC(C)CNP(=O)(NCC(C)C)Oc1ccc(CC(NC(=O)OCc2ccccc2)C(=O)OCc2ccccc2)cc1 (stereo unspecified)
inactive: 786-0 13.6 µM | A498 22.5 µM | A549 47.5 µM | ACHN 16.9 µM | BT-549 20.7 µM | CAKI-1 > 100 µM | CCRF-CEM 4.99 µM | COLO 205 19.2 µM | DU-145 9.46 µM | EKVX 34.8 µM | HCC 2998 16.8 µM | HCT-116 18.7 µM | HOP-62 14.7 µM | HOP-92 61.4 µM | HT-29 17.2 µM | Hs-578T 28.4 µM | IGROV-1 35.4 µM | K562 20 µM | KM12 18.1 µM | LOX IMVI 16.1 µM | M14 24.3 µM | MCF7 11.1 µM | MDA-MB-231 17.7 µM | MDA-MB-435 10 µM | MDA-N 18.8 µM | MOLT-4 13.9 µM | Malme-3M 19.1 µM | NCI-H226 56.1 µM | NCI-H23 15.3 µM | NCI-H460 18.1 µM | NCI-H522 13.4 µM | NCI/ADR-RES 28.8 µM | OVCAR-3 3.68 µM | OVCAR-4 18.3 µM | OVCAR-5 > 100 µM | OVCAR-8 17.3 µM | PC-3 17.1 µM | RPMI-8226 14.5 µM | RXF 393 18.5 µM | SF-268 17.6 µM | SF-295 18.5 µM | SK-MEL-28 15.4 µM | SK-MEL-2 18.5 µM | SK-MEL-5 20.2 µM | SK-OV-3 15.2 µM | SN12C 18.8 µM | SNB-19 25.2 µM | SNB-75 19.5 µM | SR 6.17 µM | SW-620 20.4 µM | T47D 13.4 µM | TK-10 31.4 µM | U-251 16.5 µM | UACC-257 24.8 µM | UACC-62 18.5 µM | UO-31 20.3 µM
26.9 µM: HCT-15
